Laboratory results from ChEMBL document CHEMBL3734659, “Identification of tris-(phenylalkyl)amines as new selective h5-HT2Breceptor antagonists” (Medchemcomm, 2015).
Calls of active or inactive are those of the source. The rule behind the calls is not given here.

What was measured:
[1] = biological target: T1, 5-hydroxytryptamine receptor 2A (Homo sapiens, UniProt P28223); assay: Displacement of [3H]ketanserin from human recombinant 5-HT2A receptor expressed in HEKT cell membrane after 90 mins by scintillation counting method; type: cell-based
[2] = biological target: T2, 5-hydroxytryptamine receptor 2B (Homo sapiens, UniProt P41595); assay: Displacement of [3H]LSD from human recombinant 5-HT2B receptor stably expressed in HEK cell membrane after 90 mins by scintillation counting method; type: cell membranes, HEK293
[3] = biological target: T3, 5-hydroxytryptamine receptor 2C (Homo sapiens, UniProt P28335); assay: Displacement of [3H]mesulergine from human recombinant 5-HT2C receptor expressed in Flp-IN HEK cell membrane after 90 mins by scintillation counting method; type: cell membranes, HEK293
T3 sequence (P28335 whole entry): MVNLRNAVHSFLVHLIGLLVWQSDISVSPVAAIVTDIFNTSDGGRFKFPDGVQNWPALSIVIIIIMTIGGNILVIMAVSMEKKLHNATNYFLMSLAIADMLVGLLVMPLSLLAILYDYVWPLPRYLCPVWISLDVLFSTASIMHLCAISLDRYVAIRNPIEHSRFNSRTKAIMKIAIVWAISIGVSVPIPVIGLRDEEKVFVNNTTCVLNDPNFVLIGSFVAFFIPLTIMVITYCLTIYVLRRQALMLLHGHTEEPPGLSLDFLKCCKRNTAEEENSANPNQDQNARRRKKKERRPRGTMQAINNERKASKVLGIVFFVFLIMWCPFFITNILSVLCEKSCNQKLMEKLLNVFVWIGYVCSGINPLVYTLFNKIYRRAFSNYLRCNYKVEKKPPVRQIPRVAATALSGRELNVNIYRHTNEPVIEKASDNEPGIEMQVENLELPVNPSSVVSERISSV

[4] = biological target: T4, 5-hydroxytryptamine receptor 2C (Homo sapiens) (UniProt P28335); assay: Displacement of [3H]mesulergine from human recombinant 5-HT2C receptor expressed in Flp-IN HEK cell membrane at 10 uM after 90 mins by scintillation counting method; type: cell membranes; conditions: HEK293
T4 sequence (whole entry): T3 sequence (P28335 whole entry)

[5] = system: HEK293; assay: Selectivity ratio of Ki for human recombinant 5-HT2A receptor expressed in HEKT cell membrane to Ki for human recombinant 5-HT2B receptor stably expressed in HEK cells; type: cell-based
[6] = system: HEK293; assay: Selectivity ratio of Ki for human recombinant 5-HT2C receptor to Ki for human recombinant 5-HT2B receptor stably expressed in HEK cell membrane; type: cell-based
[7] = biological target: T2, 5-hydroxytryptamine receptor 2B; assay: Antagonist activity at human recombinant 5-HT2B receptor expressed in Flp-In HEK cells in the presence of agonist preincubated for 10 mins by FLIPR based calcium mobilization assay; type: functional, cell-based, HEK293
[8] = biological target: T1, 5-hydroxytryptamine receptor 2A; assay: Displacement of [3H]ketanserin from human recombinant 5-HT2A receptor expressed in HEKT cell membrane at 10 uM after 90 mins by scintillation counting method; type: cell membranes
[9] = biological target: T2, 5-hydroxytryptamine receptor 2B; assay: Displacement of [3H]LSD from human recombinant 5-HT2B receptor stably expressed in HEK cell membrane at 10 uM after 90 mins by scintillation counting method; type: cell membranes; conditions: HEK293
[10] = biological target: T2, 5-hydroxytryptamine receptor 2B; assay: Agonist activity at human recombinant 5-HT2B receptor expressed in Flp-In HEK cells preincubated for 10 mins by FLIPR based calcium mobilization assay; type: functional, cell-based; conditions: HEK293
[11] = biological target: T2, 5-hydroxytryptamine receptor 2B; assay: Antagonist activity at human recombinant 5-HT2B receptor expressed in Flp-In HEK cells at 10 uM in the presence of agonist preincubated for 10 mins by FLIPR based calcium mobilization assay; type: functional, cell-based; conditions: HEK293

T2 sequence (P41595 whole entry): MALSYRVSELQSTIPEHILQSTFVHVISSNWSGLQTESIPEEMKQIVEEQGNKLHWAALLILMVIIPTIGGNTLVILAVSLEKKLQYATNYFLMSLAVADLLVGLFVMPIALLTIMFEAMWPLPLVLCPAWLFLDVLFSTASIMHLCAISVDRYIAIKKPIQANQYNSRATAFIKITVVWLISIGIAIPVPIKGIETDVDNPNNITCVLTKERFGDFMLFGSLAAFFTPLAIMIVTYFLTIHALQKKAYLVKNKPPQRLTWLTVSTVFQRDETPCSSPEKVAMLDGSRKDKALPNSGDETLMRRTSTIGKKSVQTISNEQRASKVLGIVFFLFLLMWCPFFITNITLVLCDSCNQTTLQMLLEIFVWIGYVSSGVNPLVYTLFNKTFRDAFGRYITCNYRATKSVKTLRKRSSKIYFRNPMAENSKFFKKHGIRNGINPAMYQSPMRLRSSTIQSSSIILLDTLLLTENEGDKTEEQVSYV
T1 sequence (P28223 whole entry): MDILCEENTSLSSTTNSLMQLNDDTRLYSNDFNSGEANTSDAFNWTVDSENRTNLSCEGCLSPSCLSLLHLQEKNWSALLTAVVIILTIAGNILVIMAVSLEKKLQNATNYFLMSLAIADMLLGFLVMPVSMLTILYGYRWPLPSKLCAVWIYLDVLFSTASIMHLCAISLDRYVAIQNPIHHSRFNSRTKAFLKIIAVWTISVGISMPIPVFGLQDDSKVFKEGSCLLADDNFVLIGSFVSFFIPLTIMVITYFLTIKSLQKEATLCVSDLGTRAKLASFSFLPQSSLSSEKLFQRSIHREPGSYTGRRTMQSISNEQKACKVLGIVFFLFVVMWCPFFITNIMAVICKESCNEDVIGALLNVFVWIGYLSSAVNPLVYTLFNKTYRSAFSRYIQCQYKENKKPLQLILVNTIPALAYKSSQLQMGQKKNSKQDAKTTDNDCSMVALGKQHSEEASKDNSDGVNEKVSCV

Structure (SMILES) | Ki [1] [µM] | Ki [2] [µM] | Ki ([3]; read-out: Ki) [µM] | inhibition [4] [%] | IC50 [7] [µM] | inhibition [8] [%] | inhibition [9] [%] | Activity [10] | Activity [11] | Ki ([3]; hek293) | Ratio Ki [5] | Ratio Ki [6]
COc1ccc(OC)c(CCCN(CCc2ccc(OC)c(OC)c2)CCc2ccc3c(c2)OCO3)c1 | 0.919 | 0.036 | 0.273 | > 50 | 7.94 | > 50 | > 50 | inactive |  |  | 26 | 8
COc1cccc(CCCN(CCc2ccc(OC)c(OC)c2)Cc2ccc3c(c2)OCO3)c1 | 1.51 | 0.059 | 0.103 | > 50 |  | > 50 | > 50 | inactive | inactive |  | 26 | 2
Cc1nc2sccn2c(=O)c1CCN1CCC(=C(c2ccc(F)cc2)c2ccc(F)cc2)CC1 [RITANSERIN] |  |  | 0.0018 |  |  |  |  |  |  |  |  | 
COc1ccc(CCN(CCc2ccc3c(c2)OCO3)Cc2ccccc2)cc1OC | 3.53 | 0.059 | 1.09 | > 50 |  | > 50 | > 50 | inactive |  |  | 60 | 19
COc1ccc(CCN(CCCc2cc(OC)c(OC)c(OC)c2)Cc2ccc3c(c2)OCO3)cc1OC | 2.23 | 0.231 |  |  | 12.6 | > 50 | > 50 | inactive |  | Not Active |  | 
Cn1ccc2cc3c(cc21)CCN3C(=O)Nc1cccnc1 |  | 0.021 |  |  |  |  |  |  |  |  |  | 

Continued by falling Ki [2], values first:

Ki [1] [µM] | Ki [2] [µM] | Ki ([3]; read-out: Ki) [µM] | inhibition [4] [%] | IC50 [7] [µM] | inhibition [8] [%] | inhibition [9] [%] | Activity [10] | Activity [11] | Ki ([3]; hek293) | Structure (SMILES) | Ratio Ki [5] | Ratio Ki [6]
0.226 | 0.021 | 0.241 | > 50 | 6.31 | > 50 | > 50 | inactive |  |  | COc1ccc(CCN(CC/C=C\c2ccccc2)Cc2ccc3c(c2)OCO3)cc1OC | 11 | 12
1.47 | 0.017 | 0.69 | > 50 | 10 | > 50 | > 50 | inactive |  |  | COc1ccc(CCN(CCc2ccccc2)CCc2ccc3c(c2)OCO3)cc1OC | 87 | 41
0.267 | 0.0068 | 0.206 | > 50 | 3.98 | > 50 | > 50 | inactive |  |  | COc1ccc(CCCN(CCc2ccc(OC)c(OC)c2)CCc2ccc3c(c2)OCO3)cc1 | 39 | 30
0.14 | 0.0058 | 0.123 | > 50 | 10 | > 50 | > 50 | inactive |  |  | COc1ccccc1CCCN(CCc1ccc(OC)c(OC)c1)CCc1ccc2c(c1)OCO2 | 24 | 21
0.2 | 0.0046 | 0.108 | > 50 | 1.26 | > 50 | > 50 | inactive |  |  | COc1cccc(CCCN(CCc2ccc(OC)c(OC)c2)CCc2ccc3c(c2)OCO3)c1 | 43 | 24
0.146 | 0.0041 | 0.194 | > 50 | 1.26 | > 50 | > 50 | inactive |  |  | COc1ccc(CCN(CCCc2cc(OC)c(OC)c(OC)c2)CCc2ccc3c(c2)OCO3)cc1OC | 36 | 47
